Read-outs that look alike come from different tables or passages of the source.
Assays:
[1] = target: MVD (δ): mouse vas deferens, δ-receptors; conditions: cited from earlier work; for Ke of CTAP against the peptide, MVD: antagonist CTAP (μ); for Ke of CTAP against the peptide, MVD / Ke of N,N(Me)2Dmt-Tic-OH against the peptide, MVD: MVD assay; for Ke of N,N(Me)2Dmt-Tic-OH against the peptide, MVD: antagonist N,N(Me)2Dmt-Tic-OH (δ); for GPI/MVD: ratio of IC50 values
[2] = system: δ-opioid receptor; assay: δ-opioid receptor binding, brain homogenate, versus [3H]DT; design: species or system rat; conditions: ratio of Ki values
Protocol: The receptor-binding affinities of synthetic analogs were determined using rat brain, as previously reported [45].

[3] = system: MVD (δ): mouse vas deferens, δ-receptors; assay: isolated mouse vas deferens (MVD) assay; assay type: cell-based; conditions: ratio of IC50 values
Protocol: (§1) The receptor-binding affinities of synthetic analogs were determined using rat brain, as previously reported. […] The GPI tissue contains predominantly μ-receptors, while MVD tissue contains δ-receptors. […] In contrast, 11 was devoid of activity in both assays, as expected from the binding data. […] This analog turned out to be a potent μ-antagonist and a weak δ-antagonist. […] The results of 13 are in line with observations that Dmt-D-Phe-NH2 and its C-terminally extended analog are μ-receptor antagonists.

[4] = system: GPI (μ): guinea pig ileum, predominantly μ-receptors; conditions: cited from earlier work; for Ke of CTAP against the peptide, GPI: antagonist CTAP (μ), GPI assay; for MVD/GPI: ratio of IC50 values
[5] = target: μ-opioid receptor; conditions: cited from earlier work; for Ki: versus [3H]DAMGO, read-out: Receptor binding affinity, Ki ± S.E., μ
[6] = target: δ-opioid receptor; conditions: cited from earlier work; for Ki: versus [3H]DT, read-out: Receptor binding affinity, Ki ± S.E., δ; for μ/δ: ratio of Ki values
[7] = system: μ-opioid receptor; assay: μ-opioid receptor binding, brain homogenate, versus [3H]DAMGO; design: species or system rat; conditions: ratio of Ki values
Protocol: as §1
Two methyl groups on Dmp^4 may interfere with the receptor interaction due to a reduction in conformational flexibility and/or enhanced lipophilicity. To further examine the usefulness of Dmp-containing DYN peptides as κ-opioid receptor ligands, the in vitro bioactivity of DYN peptides was determined using the GPI assay (Table 5).

[8] = system: mice; design: method as in PMID 12657261; conditions: formalin test in mice, subcutaneous injection, cited from earlier work
[9] = system: GPI (μ): guinea pig ileum, predominantly μ-receptors; assay: isolated guinea pig ileum (GPI) assay; assay type: cell-based; conditions: ratio of IC50 values
Protocol: as §1

## [Dmp^1]ENK [compound 32]
[1]; Table 6
  IC50: 66.6 ± 12.7 nM
[2]; Table 6
  μ/δ: 3.19
[3]; Table 6
  GPI/MVD: 10.66
[4]; Table 6
  IC50: 710 ± 69 nM
[5]; Table 6
  Ki: 5.94 ± 1.45 nM
[6]; Table 6
  Ki: 1.86 ± 0.61 nM

## [Dmp^1]YRFB [compound 24]
[1]; Table 6
  IC50: 188 ± 52 nM
[1]
  Ke of CTAP against the peptide, MVD: 13.4 nM
  Ke of N,N(Me)2Dmt-Tic-OH against the peptide, MVD: >1000 nM
[7]; Table 6
  δ/μ: 41284
[8]
  ED50, First phase: 1946 nmol/kg
  ED50, Second phase: 1529 nmol/kg
[4]; Table 6
  IC50: 9.88 ± 1.04 nM
[4]
  Ke of CTAP against the peptide, GPI: 25.1 nM
[5]; Table 6
  Ki: 0.0623 ± 0.014 nM
[6]; Table 6
  Ki: 2570 ± 947 nM
[9]; Table 6
  MVD/GPI: 19

## [Dmp^3]DM [compound 18]
[1]; Table 1
  IC50: 4.62 ± 0.82 nM
[7]; Table 1
  δ/μ: 84630
[4]; Table 1
  IC50: 1.21 ± 0.23 nM
[6]; Table 1, rat brain
  Ki: 45.7 ± 11.8 nM
[9]; Table 1
  MVD/GPI: 3.8

## [Dmp^3]DT [compound 20]
[1]; Table 1
  IC50: 0.022 ± 0.003 nM
[4]; Table 1
  IC50: 6700 ± 992 nM
[5]; Table 1, rat brain
  Ki: 1100 ± 111 nM
[6]; Table 1, rat brain
  Ki: 0.00105 ± 0.00043 nM

## [Dmp^3]EM2 [compound 14]
[7]; Table 1
  δ/μ: 34967
[4]; Table 1
  IC50: 0.378 ± 0.104 nM
[5]; Table 1, rat brain
  Ki: 0.0304 ± 0.0208 nM
[6]; Table 1, rat brain
  Ki: 1060 ± 336 nM
[9]; Table 1
  MVD/GPI: 3.68

## [Dmp^3]YRFB [compound 22]
[1]; Table 1
  IC50: 27.9 ± 5 nM
[1]
  Ke of CTAP against the peptide, MVD: 11.4 nM
  Ke of N,N(Me)2Dmt-Tic-OH against the peptide, MVD: >1000 nM
[7]; Table 1
  δ/μ: 15543
[8]
  ED50, First phase: 98.6 nmol/kg
  ED50, Second phase: 113 nmol/kg
[4]; Table 1
  IC50: 1.67 ± 0.24 nM
[4]
  Ke of CTAP against the peptide, GPI: 22.7 nM
[5]; Table 1, rat brain
  Ki: 0.035 ± 0.0167 nM
[6]; Table 1, rat brain
  Ki: 544 ± 143 nM
[9]; Table 1
  MVD/GPI: 16.7

## [Dmp^4]EM2 [compound 16]
[1]; Table 1
  IC50: 320 ± 55 nM
[7]; Table 1
  δ/μ: 578
[4]; Table 1
  IC50: 196 ± 40 nM
[5]; Table 1, rat brain
  Ki: 13.2 ± 1.9 nM
[6]; Table 1, rat brain
  Ki: 7620 ± 2570 nM
[9]; Table 1
  MVD/GPI: 1.63

## [Dmp^4]ENK [compound 10]
[1]; Table 1
  IC50: 624 ± 103 nM
[2]; Table 1
  μ/δ: 0.07
[3]; Table 1
  GPI/MVD: 1.29
[4]; Table 1
  IC50: 808 ± 101 nM
[5]; Table 1, rat brain
  Ki: 1.25 ± 0.29 nM
[6]; Table 1, rat brain
  Ki: 17.7 ± 4.2 nM

## [Dmt^1, D-Dmp^4]ENK [compound 13]
[1]; Table 1
  IC50: > 10000 nM
[1]; against DT as a δ agonist in the MVD assay
  pA2 (δ antagonism): 5.57
[2]; Table 1
  μ/δ: 0.14
[4]; Table 1
  IC50: > 10000 nM
[4]; against EM2 as a μ agonist in the GPI assay
  pA2 (μ antagonism): 6.90
[5]; Table 1, rat brain
  Ki: 5.61 ± 0.59 nM
[6]; Table 1, rat brain
  Ki: 40.9 ± 11.5 nM

## [Dmt^1, Dmp^4]ENK [compound 12]
[1]; Table 1
  IC50: 1.45 ± 0.26 nM
[2]; Table 1
  μ/δ: 0.19
[3]; Table 1
  GPI/MVD: 1.38
[4]; Table 1
  IC50: 2 ± 0.51 nM
[5]; Table 1, rat brain
  Ki: 0.03 ± 0.011 nM

## [Dmt^1]DT [compound 36]
[1]; Table 6
  IC50: 0.052 ± 0.007 nM
[2]; Table 6
  μ/δ: 21.8
[3]; Table 6
  GPI/MVD: 1700
[4]; Table 6
  IC50: 88.4 ± 22.7 nM
[5]; Table 6
  Ki: 0.261 ± 0.06 nM
[6]; Table 6
  Ki: 0.012 ± 0.002 nM

## [Dmt^1]EM2 [reference compound]
[1]; Table 6, footnote d
  IC50: 1.87 ± 0.61 nM
[4]; Table 6, footnote d
  IC50: 0.07 ± 0.02 nM
  MVD/GPI: 26.7
[5]; Table 6, footnote d
  Ki: 0.15 ± 0.04 nM

## [Dmt^1]ENK [reference compound]
[1]; Table 1, footnote c
  IC50: 0.17 ± 0.02 nM
  GPI/MVD: 3.24
[1]; Table 6, footnote c
  IC50: 0.17 ± 0.02 nM
  GPI/MVD: 3.24
[4]; Table 1, footnote c
  IC50: 0.55 ± 0.17 nM
[4]; Table 6, footnote c
  IC50: 0.55 ± 0.17 nM
[5]; Table 1, footnote c
  Ki: 0.0068 ± 0.003 nM
[5]; Table 6, footnote c
  Ki: 0.0068 ± 0.003 nM
[6]; Table 1, footnote c
  μ/δ: 0.22
  Ki: 0.031 ± 0.011 nM
[6]; Table 6, footnote c
  μ/δ: 0.22
  Ki: 0.031 ± 0.011 nM

## [Dmt^1]YRFB [reference compound]
[1]; Table 6, footnote c
  IC50: 0.398 ± 0.085 nM
[1]
  Ke of CTAP against the peptide, MVD: 7.89 nM
  Ke of N,N(Me)2Dmt-Tic-OH against the peptide, MVD: 192 nM
[4]; Table 6, footnote c
  IC50: 0.034 ± 0.065 nM
  MVD/GPI: 11.7
[4]
  Ke of CTAP against the peptide, GPI: 85.5 nM
[5]; Table 6, footnote c, ratio of Ki values
  δ/μ: 551
[5]; Table 6, footnote c
  Ki: 0.00205 ± 0.00069 nM
[6]; Table 6, footnote c
  Ki: 1.13 ± 0.13 nM

## [Phe^1]DT [compound 37]
[1]; Table 6
  IC50: 10.4 ± 1.5 nM
[4]; Table 6
  IC50: > 10000 nM
[5]; Table 6
  Ki: > 2180 nM
[6]; Table 6
  Ki: 2.68 ± 1.22 nM

## [Phe^1]EM2 [compound 40]
[1]; Table 6
  IC50: 5200 nM
[7]; Table 6
  δ/μ: 348
[4]; Table 6
  IC50: 1070 ± 309 nM
[5]; Table 6
  Ki: 54.1 ± 23.4 nM
[6]; Table 6
  Ki: 18900 nM
[9]; Table 6
  MVD/GPI: 4.85

## [Phe^1]ENK [compound 33]
[1]; Table 6
  IC50: > 10000 nM
[2]; Table 6
  μ/δ: 2.29
[4]; Table 6
  IC50: > 10000 nM
[5]; Table 6
  Ki: 169 ± 12 nM
[6]; Table 6
  Ki: 73.7 ± 19.5 nM

## [Phe^1]YRFB [compound 42]
[1]; Table 6
  IC50: 7140 ± 950 nM
[7]; Table 6
  δ/μ: >393
[4]; Table 6
  IC50: 633 ± 89 nM
[5]; Table 6
  Ki: 7.17 ± 1.03 nM
[6]; Table 6
  Ki: > 2820 nM
[9]; Table 6
  MVD/GPI: 11.2
